Experimental data reported in patent publication US8980933B2, “Combretastatin analogs for use in the treatment of cancer” (Universitat Bayreuth, priority 2010, dated 2015).
“Also recorded” adds a separate entry of the source.

Key:
[1] = test system: HUVEC cells; assay: Tube formation assay on matrigel; format: cell-based; settings: 7.72 ng/mL
Procedure: 35 μL of media:matrigel (1:1) were added into wells of a 96-well plate and incubated at 37° C. for 30 minutes. A trypsinized HUVEC cell suspension was set to 800.000 cells/mL. In another 96-well plate 25 μL of the compound stock were serially diluted with 25 μL of media. 25 μL of compound dilutions and 25 μL of cell suspension were added to the matrigel coated 96-well plate and the cells were incubated over night. As a negative control, methanol was used as in place of the compound dilutions.

[2] = test system: 1411HP germ cell tumor xenografts; assay: Nude mouse xenograft model of resistant 1411HP; format: in vivo; settings: for intra-tumoral hemorrhage (vascular disrupting effect): after 24 h
Procedure: In vivo antitumor activity and tolerability of compounds 5b and 6b of the invention were studied in a nude mouse xenograft model of the resistant germ cell tumor cell line 1411HP employing Athymic Nude-Fox n1 nu/nu mice (Harlan und Winkelmann, Borchen, Germany).
The tests were carried out as follows. The mice were kept under pathogen-free conditions, fed on an autoclaved standard diet and given free access to sterilized water. Each of five mice were administered a 150 μL phosphate buffered saline suspension of 10 million 1411HP cells into the left flank to generate subcutaneous xenograft tumors. After 4 weeks one group of two mice bearing 1411HP xenografts with a volume of ca. 1 cm^3 were injected i.p. with a single dose of 30 mg/kg body weight of 5b or 6b, respectively. Two mice in the second group with xenografts of a volume of ca. 2.5 cm^3 were injected i.p. with 20 mg/kg body weight of 5b on two consecutive days. Tumor volumes were calculated by caliper measurement using the formula a^2×b×0.5 with a being the short and b the long dimension. Body weight was assessed twice weekly and daily while under therapy.

[3] = test system: 518A2 cells; assay: Mitochondrial membrane assay (JC-1), 518A2; format: cell-based, human; settings: 5 μM, red/green fluorescence ratio relative to untreated controls (100%), mean ± SD
Procedure: Values represent means of four independent experiments±standard deviation.
Changes in mitochondrial membrane potential were determined by the Mitochondrial Membrane Detection Kit (Stratagene, La Jolla, Calif., USA) according to the manufacturer's procedure. 72 h following treatment with 5 μM of the test compounds, cell samples were centrifuged at 400 g for 5 min. The pellets were resuspended in 500 μL diluted JC-1 solution, incubated at 37° C. for 15 min (HL-60) and then centrifuged again for 5 min at 400 g. After washing, the pellets were resuspended in 100 μL PBS and transferred into the wells of a black 96-well plate. The red (λex=585 nm, λem=590 nm) and green (λex=510 nm, λem=527 nm) fluorescence intensities were measured and their ratio was calculated.

[4] = Solubility in water; format: physicochemical
[5] = test system: H12.1 germ cell tumor, 1411HP germ cell tumor, A2780 ovarian carcinoma, HT29 colon carcinoma, DLD1 colon carcinoma, HCT8 colon carcinoma; assay: SRB-cytotoxicity assay in a panel of tumor cell lines; format: cell-based, human; settings: H12.1, 1411HP
Procedure: The cytotoxic activity of 5b was established by standard colorimetric tests (SRB- and MTT-assays) against various tumor cell lines of different entities. For the SRB cytotoxicity assay, dose-response curves of the testicular germ cell tumor cell lines exposed to drug concentrations of 0.001-10 μM were established using the sulforhodamine-B (SRB) microcuiture colorimetric assay (Papazisis et al. Optimization of the sulforhodamine B colorimetric assay. J. Immunol. Methods 1997, 208, 151-158) and performed as described in: Müller et al. Failure of activation of caspase-9 induces a higher threshold for apoptosis and cisplatin resistance in testicular cancer. Cancer Res. 2003, 63, 513-521. Briefly, cells were seeded into 96-well plates on day 0, at cell densities previously determined to ensure exponential cell growth during the period of the experiment. On day 1, cells were treated with the drugs dissolved in medium to give the appropriate concentrations for indicated times and the percentage of surviving cells relative to untreated controls was determined on day 5.
The compounds 5b, 6b, 5f and 6f as well as the reference compound 25f (Wang et al.) were furthermore subjected to an SRB-cytotoxicity assay in a panel of tumor cell lines (H12.1 germ cell tumor, 1411HP germ cell tumor, A2780 ovarian carcinoma, HT29 colon carcinoma, DLD1 colon carcinoma, HCT8 colon carcinoma).

[6] = test system: A2780 ovarian carcinoma xenografts; assay: A2780 ovarian carcinoma xenograft model; format: in vivo, mouse
[7] = dual-dose i.p. 20 mg/kg on two consecutive days
[8] = single dose 30 mg/kg i.p., xenografts ca. 1 cm3

| SMILES | inhibition of tube formation [1] | tumor response [2, 7] | tolerability ([2]; single dose 30 mg/kg i.p.) | intra-tumoral hemorrhage (vascular disrupting effect) [2, 8] | tumor response [2, 8] | duration of tumor volume stabilization ([2]; single dose application) | tolerability of repeated applications ([2]; third course of double dose 20 mg/kg i.p.) | tumor response to repeated applications ([2]; three double doses of 20 mg/kg i.p. (further on days 16/17 and 35/36)) | Intact mitochondria [%] in 518A2 cells after 72 h [3] [%] | solubility [4] [µg/mL] | in vitro cytotoxicity compared to 25f [5] | vascular disrupting effect [6] | vascular disrupting effect ([2]; 1411HP xenograft model) |
| --- | --- | --- | --- | --- | --- | --- | --- | --- | --- | --- | --- | --- | --- |
| COc1ccc(-c2c(-c3cc(Cl)c(OC)c(OC)c3)ncn2C)cc1N [compound 5b, 1-methyl-5-(3-amino-4-methoxyphenyl)-4-(3-chloro-4,5-dimethoxyphenyl)-imidazole] | did not yield a correspondingly strong inhibition at this concentration | dramatic tumor regressions, leading even to a stabilization in one case | tolerated this treatment very well | strong intra-tumoral hemorrhage | transient swelling of the tumors, eventually followed by regression and slow regrowth | stabilize the tumor volume for about two weeks | well tolerated | regressions and prolonged periods of stabilization following each of the three applications | 80 ± 9 | > 10000 | superior activity as compared to compound 25f | vascular disrupting activity | – |
| COc1ccc(-c2c(-c3cc(Br)c(OC)c(OC)c3)ncn2C)cc1N [compound 6b, 1-methyl-5-(3-amino-4-methoxyphenyl)-4-(3-bromo-4,5-dimethoxyphenyl)-imidazole] | pronounced inhibition of tube formation | high antitumor activity to a similar extent as compound 5b | tolerated this treatment very well | strong intra-tumoral hemorrhage | transient swelling of the tumors, eventually followed by regression and slow regrowth | – | – | – | 80 ± 9 | > 10000 | superior activity as compared to compound 25f | vascular disrupting activity | vascular disrupting activity; also recorded: vascular disrupting in tumor xenografts |
